Calls of active or inactive are those of the source. The rule behind the calls is not given here.

This note sets out measurements from ChEMBL document CHEMBL3132810, “Novel benzofuranchromone and coumarin derivatives: synthesis and biological activity in K562 human leukemia cells” (Medchemcomm, 2013).

Experiment [1] concerns K562. Put plainly: Induction of apoptosis in human K562 cells at 50 uM after 48 hrs. It is filed as functional.
Experiment [2] relates to K562. In words: Cell cycle arrest in human K562 cells assessed as slight accumulation at G1 phase at 50 uM after 48 hrs by propidium iodide staining-based FACS -Calibur flow cytometry. In kind it is functional.
Experiment [3] has as its system K562. Put plainly: Cell cycle arrest in human K562 cells assessed as accumulation at S phase at 50 uM after 48 hrs by propidium iodide staining-based FACS -Calibur flow cytometry. It is filed as functional.
Experiment [4] deals with K562. In words: Anticancer activity against human K562 cells assessed as growth inhibition. It is filed as functional, cell-based.
Experiment [5] deals with K562. Put plainly: Cell cycle arrest in human K562 cells assessed as accumulation at G2 phase at 50 uM after 48 hrs by propidium iodide staining-based FACS -Calibur flow cytometry. It is filed as functional.
In experiment [6] the test system is K562. In words: Induction of apoptosis in human K562 cells at 100 uM after 72 hrs. It is filed as functional, cell-based.
Experiment [7] has as its system K562. Put plainly: Induction of apoptosis in human K562 cells at 50 uM after 72 hrs. It is filed as functional, cell-based.

As to `Cc1cc2occ(/C=C3\Oc4cc5ccccc5cc4C3=O)c(=O)c2cc1C`, the Activity in the experiment with K562 [1] is on record as 17%. Besides, the result in the experiment with K562 [2] was Active.
As for `O=C1/C(=C/c2coc3ccc(Cl)cc3c2=O)Oc2ccccc21`, in the experiment with K562 [3], the Activity is on record as 63%.
As to `O=C1/C(=C/c2coc3ccccc3c2=O)Oc2ccccc21`, in the experiment with K562 [1], the Activity amounted to 17%.
Compound `O=C1/C(=C/c2coc3ccc(Cl)cc3c2=O)Oc2cc3ccccc3cc21` displayed an Activity with K562 [1] of 17%.
`COc1ccc(/C=C2\Oc3c(cc(OC)c(OC)c3OC)C2=O)cc1O`: the half-inhibitory concentration (IC50) (in general, the concentration that inhibits the measured activity by half) with K562 [4] is 50 µM.
Take `COc1ccc2c(/C=C3\Oc4cc5ccccc5cc4C3=O)cc(=O)oc2c1`: the Activity with K562 [1] was determined as 24%; in the experiment on K562 [5], 46%.
With `COc1ccc2c(=O)c(/C=C3\Oc4ccccc4C3=O)coc2c1`, the Activity in the experiment on K562 [1] was found to be 17%.
Regarding `O=C1/C(=C/c2coc3ccc(F)cc3c2=O)Oc2ccccc21`, the outcome in the experiment with K562 [3] was Active.
For the compound `Cc1ccc2c(c1)O/C(=C\c1coc3cc(Cl)ccc3c1=O)C2=O`, the outcome with K562 [3] was Active.
Same read-out and setting: the same measure for `Cc1ccc2occ(/C=C3\Oc4ccccc4C3=O)c(=O)c2c1`: “Active”.
Consider `COc1ccc2c(/C=C3\Oc4cc(C)ccc4C3=O)cc(=O)oc2c1`, for which the Activity in the experiment on K562 [1] was 24%. For the same compound, the outcome with K562 [6], in the experiment on K562 [7] and in the experiment with K562 [2] was Active.
`O=C1/C(=C/c2coc3ccccc3c2=O)Oc2cc3ccccc3cc21` displayed an Activity in the experiment with K562 [1] of 17%.
Take `Cc1ccc2c(c1)O/C(=C\c1coc3ccccc3c1=O)C2=O`: the outcome in the experiment with K562 [3] was Active.
For `COc1ccc(/C=C2\Oc3cc(C)ccc3C2=O)cc1`, the result in the experiment with K562 [6] and in the experiment on K562 [7] was Active.
As for `Cc1ccc2c(c1)O/C(=C\c1coc3ccc(F)cc3c1=O)C2=O`, the outcome in the experiment on K562 [3] was Active.
In the case of `COc1ccc(-c2cc(=O)c3cc(OC)c(OC)c(OC)c3o2)cc1O`, in the experiment on K562 [4], the half-maximal inhibitory concentration (IC50) came to 40 µM.
For `Cc1ccc2c(c1)O/C(=C\c1coc3ccc(Cl)cc3c1=O)C2=O`, the outcome with K562 [3] was Active.
In the experiment on K562 [1], `COc1cccc2occ(/C=C3\Oc4cc5ccccc5cc4C3=O)c(=O)c12` displayed an Activity of 17%. For the same compound, the result in the experiment with K562 [2] was Active.
As to `COc1ccc2c(C=O)cc(=O)oc2c1`, the outcome in the experiment on K562 [6] and in the experiment with K562 [7] was Active.
For the compound `Cc1ccc2c(c1)O/C(=C\c1coc3ccc(C)cc3c1=O)C2=O`, the Activity in the experiment with K562 [1] is listed as 24%; in the experiment on K562 [2], 72%.
